The subject of this assay is Sodium-dependent phosphate transport. The assay can be described thus: Phosphate uptake assay in human proximal tubule cells (32P-labelled inorganic phosphate uptake). Type of assay: cell-based. Conditions: whole cell assay, 32P uptake. The method, then:
Sodium-dependent phosphate transport inhibition is determined by the ability of the test compound to inhibit the uptake of radio-labeled inorganic phosphate by proximal tubule cells. Appropriate cells from human, rabbit, or rat may be used.
Cell Preparation and Phosphate Uptake Assay.
Rabbit proximal tubule cells were isolated and cultured according to the procedure of Sakhrani, L. M. et al., Am. J. Physiol. 246:F757-F764, (1984) whose disclosure is incorporated herein by reference in its entirety. Human proximal tubule cells were purchased from Clonetics (San Diego, Calif.) and grown according to the suppliers' instructions. On the day of the experiment, cells were harvested from culture plates with 0.5 mM EDTA in phosphate buffered saline. The cells were washed twice in uptake buffer (see below) and equilibrated at 37 C in the same buffer for 30 minutes. Aliquots of cells (100 ul, 0.5 to 1 million cells) were distributed into glass test tubes. Fifty ul of drug solution or buffer were added followed by 50 ul of uptake buffer containing 100 uM [^32P]-K2HPO4 (0.5 to 1 uCi/tube).After varying periods of time (usually 4 minutes) at 37 C, uptakes were stopped with 4 ml of cold stop solution (see below) and the cells were washed 3 times in this solution by centrifugation. The pelleted cells were dissolved in 0.5 ml 1 N NaOH and ^32P was counted in a liquid scintillation counter. Phosphate uptake is expressed as pmol phosphate/mg cell protein.
In the above noted whole cell assay system for rabbit and human proximal tubule cells the cells are harvested by filtration and ^32P uptake is measured. It is also possible to use ^33P rather than ^32P.

What is called IC50 is the point on the concentration scale where inhibition reaches its midpoint. A higher IC50 goes with a need for much substance. In the case of `O=C(Nc1ccc(Br)cc1)c1cc(Br)ccc1NS(=O)(=O)c1ccccc1F` [5-bromo-N-(4-bromophenyl)-2-(2-fluorophenylsulfonamido)benzamide], the IC50 was 15 µM. For `O=C(Nc1ccc(Br)cc1)c1cc(Br)ccc1NS(=O)(=O)CCCCl` [5-bromo-N-(4-bromophenyl)-2-(3-chloropropylsulfonamido)benzamide], the IC50 was found to be 14 µM. Then `O=C(Nc1ccc(Br)cc1)c1cc(Br)ccc1NS(=O)(=O)c1ccc(Cl)s1` [5-bromo-N-(4-bromophenyl)-2-(5-chloro-2-thienylsulfonamido)benzamide], with 12 µM.
